Values quoted from earlier work as cited in patent US20100086572A1, “RATIONAL PPI DOSAGE FORMS” (priority 2005, published 2010).
Like-named read-outs stand apart in the source and are kept apart here.

What was measured:
[1] = 0.5 hours
[2] = test system: experimentally induced colitis; conditions: in vivo

- area under the plasma concentration curve (AUC) (30 mg once a day): 1934 ng·h/mL
- area under the plasma concentration curve (AUC) (60 mg once a day): 4743 ng·h/mL
- area under the plasma concentration curve (AUC) (60 mg three times a day): 14083 ng·h/mL
- area under the plasma concentration curve (AUC) (60 mg twice a day): 8508 ng·h/mL
- drug degrading in aqueous solution ([1]; pH 5, 37° C.): About 49%
- drug degrading in aqueous solution ([1]; pH 6, 37° C.): ~10%
- drug degrading in aqueous solution ([1]; pH 7, 37° C.): ~2%
- drug degrading in aqueous solution ([1]; pH 8, 37° C.): ~1%
SMILES: Cc1c(OCC(F)(F)F)ccnc1C[S+]([O-])c1nc2ccccc2[nH]1 (stereo not drawn) [lansoprazole]
- formation of experimentally induced colitis [2]: inhibits the formation of experimentally induced-induced colitis
